Assay results as given in PMC7407242, “Deamidated Human Triosephosphate Isomerase is a Promising Druggable Target” (Biomolecules, 2020).

Tests used:
[1] = molecular target: T1, HsTIM (human triosephosphate isomerase) (Homo sapiens, UniProt P60174); test: TIM activity in lysate of treated E. coli tim-deletion cells; assay type: cell-based; design: gene TPI1; full-length; tagged plasmid in E. coli tim-deletion BL21-Gold(DE3) cells for omeprazole; homodimer, 5 Cys per subunit; details: residual activity; 0.75 mM omeprazole, 22 h at 37 °C, M9 medium; covalent
Source text: TIM activity in lysate of treated E. coli tim-deletion cells on HsTIM (human triosephosphate isomerase)

[2] = molecular target: T2, HsTIM (human triosephosphate isomerase) (Homo sapiens, UniProt P60174, N16D); test: residual activity after preincubation, coupled alpha-GPDH / NADH assay at […] nm; assay type: biochemical; details: read-out: activity dropped to 50%
T2 construct: gene TPI1; full-length; recombinant E. coli BL21-CodonPlus(DE3)-RIL, vector pET3a-HisTEV, N-terminal His6-TEV tag cut by TEVp for purified assays; tagged plasmid in E. coli tim-deletion BL21-Gold(DE3) cells for omeprazole; homodimer, 5 Cys per subunit

[3] = molecular target: T1, HsTIM (human triosephosphate isomerase); test: Ellman free thiol count after derivatization; assay type: binding; design: gene TPI1; full-length; recombinant E. coli BL21-CodonPlus(DE3)-RIL, vector pET3a-HisTEV, N-terminal His6-TEV tag cut by TEVp for purified assays; tagged plasmid in E. coli tim-deletion BL21-Gold(DE3) cells for omeprazole; homodimer, 5 Cys per subunit; details: covalent; 250 µM compound, 2 h at 37 °C, enzyme 0.5 mg/mL, TE buffer pH 7.4
Source text: Ellman free thiol count after derivatization on HsTIM (human triosephosphate isomerase)

T2 sequence (P60174 2-249 N16D): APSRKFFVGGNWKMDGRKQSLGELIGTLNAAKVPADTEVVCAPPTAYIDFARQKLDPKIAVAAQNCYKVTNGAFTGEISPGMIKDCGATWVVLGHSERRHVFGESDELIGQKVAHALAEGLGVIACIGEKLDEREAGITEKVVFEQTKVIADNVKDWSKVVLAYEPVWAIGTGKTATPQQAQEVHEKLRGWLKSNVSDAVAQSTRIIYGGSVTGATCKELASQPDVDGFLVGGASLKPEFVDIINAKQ
T1 sequence (P60174 2-249): as the sequence (P60174 2-249 N16D) above, with D15N counted along it

Row | Enzyme Activity (%) [1] [%] | IC50 [2] [µM] | Derivatized Cys/Subunit [3] [Cys/subunit] | SMILES
1 | 96 ± 4 |  |  | COc1ccc2[nH]c([S+]([O-])Cc3ncc(C)c(OC)c3C)nc2c1 (stereo not drawn) [omeprazole]
2 |  | 7.5 | 1 | CSS(C)(=O)=O [MMTS]
3 |  | 6 | 1 | CS(=O)(=O)SCCS(=O)(=O)O [MTSES, sodium 2-[(methylsulfonyl)sulfanyl] ethanesulfonate]
4 |  | 3 |  | O=C(O)c1cc(SSc2ccc([N+](=O)[O-])c(C(=O)O)c2)ccc1[N+](=O)[O-] [DTNB, 5,5′-dithiobis-(2-nitrobenzoic acid)]
